Data set [1] concerns A2780. The data set is described as follows: Antitumor activity against human A2780 cells xenografted in CD1 mouse assessed as reduction in tumor volume at 50 mg/kg, ip administered bid for 10 days started on day 7 post-tumor inoculation and measured three times per week by digital caliper analysis. It counts as functional.
The target in data set [2] is Bromodomain-containing protein 4 (Homo sapiens, UniProt O60885). The data set is described as follows: Inhibition of BRD4 (unknown origin).
Data set [3] is described as follows: Toxicity in CD1 mouse xenografted with human A2780 cells assessed as body weight at 50 mg/kg, ip administered bid for 10 days (reference value: 96%). It counts as organism-based. The note with it: in vivo, 240 h.
Data set [4] in a line: AUC in CD1 mouse at 10 mg/kg, po measured upto 24 hrs by LCMS analysis. It counts as ADME, organism-based. On the set-up: dose 10 mg/kg, time < 24 hr, route oral. The conditions noted are these: in vivo.
Data set [5] can be described thus: Stability in human liver microsomes assessed as intrinsic clearance per mg protein. It counts as ADME, Microsome. The conditions noted are these: read-out: CLH.
The test system of data set [6] is A2780. Description: Antitumor activity against human A2780 cells xenografted in CD1 mouse assessed as reduction in tumor volume at 100 mg/kg, po administered bid for 10 days started on day 7 post-tumor inoculation and measured three times per week by digital caliper analysis. In kind it is functional. A general note: In xenograft studies the graft and the host belong to different species.

The subject of a further data set is PC-3. The data set is described as follows: Growth inhibition of human PC3 cells. In kind it is functional.
A further data set addresses Cytochrome P450 2C9 (Homo sapiens, UniProt P11712). Description: Inhibition of CYP2C9 (unknown origin). In kind it is ADME.
Data set [7] is described as follows: Stability in mouse liver microsomes assessed as intrinsic clearance per mg protein. In kind it is ADME, Microsome. The note with it: read-out: CLH. A general note: Microsomes from liver hold many membrane-bound enzymes, among them those of drug oxidation.
For a further data set, the target named is Cytochrome P450 3A4 (Homo sapiens, UniProt P08684). Description: Inhibition of CYP3A4 (unknown origin). It counts as ADME.
Sequence of Cytochrome P450 3A4 (P08684 whole entry): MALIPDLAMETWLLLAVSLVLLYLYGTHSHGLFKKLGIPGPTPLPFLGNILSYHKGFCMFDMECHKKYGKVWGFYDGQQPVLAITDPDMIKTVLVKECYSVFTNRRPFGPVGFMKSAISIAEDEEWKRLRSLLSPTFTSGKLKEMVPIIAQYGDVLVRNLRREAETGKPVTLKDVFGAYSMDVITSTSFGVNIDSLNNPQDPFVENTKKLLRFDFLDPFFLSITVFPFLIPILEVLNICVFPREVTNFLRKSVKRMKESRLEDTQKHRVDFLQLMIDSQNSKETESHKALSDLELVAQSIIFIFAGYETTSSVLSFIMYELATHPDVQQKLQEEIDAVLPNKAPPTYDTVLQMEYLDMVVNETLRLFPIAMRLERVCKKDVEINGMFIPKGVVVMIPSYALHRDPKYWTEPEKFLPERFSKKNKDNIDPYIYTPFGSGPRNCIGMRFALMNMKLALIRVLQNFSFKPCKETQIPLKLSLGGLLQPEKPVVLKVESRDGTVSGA
The nature of data set [8]: AUC in CD1 mouse at 10 mg/kg, iv measured upto 24 hrs by LCMS analysis. The conditions noted are these: in vivo. In kind it is ADME, organism-based. On the set-up: time < 24 hr, dose 10 mg/kg, route intravenous.
The nature of data set [9]: Oral bioavailability in CD1 mouse at 10 mg/kg measured upto 24 hrs by LCMS analysis. It counts as ADME, organism-based. The note with it: in vivo.
Data set [10] can be described thus: Clearance in CD1 mouse at 10 mg/kg, iv measured upto 24 hrs by LCMS analysis. In kind it is ADME, organism-based. The note with it: in vivo.
Data set [11] concerns the target Mitogen-activated protein kinase 14 (Homo sapiens, UniProt Q16539). Description: Inhibition of recombinant N-terminal GST-tagged full length human p38alpha expressed in Escherichia coli cells assessed as substrate phosphorylation using Ulight-MBP peptide as substrate incubated for 1 hr by LANCE assay. For orientation: In TR-FRET formats the signal depends on donor and acceptor labels being close together.

A short description of data set [12]: Fraction unbound in plasma (unknown origin). In kind it is ADME, cell-free.
Data set [13] can be described thus: Permeability across basolateral to apical side in human Caco2 cells. It counts as ADME, cell-based. The conditions noted are these: Caco-2, read-out: permeability.
The nature of data set [14]: Toxicity in CD1 mouse xenografted with human A2780 cells assessed as body weight at 100 mg/kg, po administered bid for 10 days (reference value: 96%). The note with it: in vivo, 240 h. In kind it is organism-based.
The nature of data set [15]: Tmax in CD1 mouse at 10 mg/kg, po measured upto 24 hrs by LCMS analysis. In kind it is ADME, organism-based. The conditions noted are these: in vivo.
The nature of data set [16]: Half life in CD1 mouse at 10 mg/kg, iv measured upto 24 hrs by LCMS analysis. The note with it: in vivo. It counts as ADME, organism-based.
A further data set has as its target Cytochrome P450 2D6 (Homo sapiens, UniProt P10635). The data set is described as follows: Inhibition of CYP2D6 (unknown origin). It counts as ADME.
The nature of data set [17]: Solubility of compound by turbidometry. In kind it is physicochemical.
The nature of data set [18]: Cmax in CD1 mouse at 10 mg/kg, po measured upto 24 hrs by LCMS analysis. In kind it is ADME, organism-based. Also noted: dose 10 mg/kg, route oral. The note with it: in vivo.
A short description of data set [19]: Volume of distribution in CD1 mouse at 10 mg/kg, iv measured upto 24 hrs by LCMS analysis. In kind it is ADME, organism-based. The note with it: in vivo.
Data set [20] is described as follows: Cmax in CD1 mouse at 10 mg/kg, iv measured upto 24 hrs by LCMS analysis. On the set-up: dose 10 mg/kg, route intravenous. It counts as ADME, organism-based. The note with it: in vivo.
The next data set concerns the target Cytochrome P450 2C19 (Homo sapiens, UniProt P33261). Description: Inhibition of CYP2C19 (unknown origin). It counts as ADME.
Data set [21] deals with T1, Mitogen-activated protein kinase 7 (Homo sapiens, UniProt Q13164). Description: Inhibition of ERK5 (unknown origin) using R7129 as substrate incubated for 2 hrs by IMAP fluorescence polarization analysis.
T1 sequence (Q13164 whole entry, the tested form may be a part): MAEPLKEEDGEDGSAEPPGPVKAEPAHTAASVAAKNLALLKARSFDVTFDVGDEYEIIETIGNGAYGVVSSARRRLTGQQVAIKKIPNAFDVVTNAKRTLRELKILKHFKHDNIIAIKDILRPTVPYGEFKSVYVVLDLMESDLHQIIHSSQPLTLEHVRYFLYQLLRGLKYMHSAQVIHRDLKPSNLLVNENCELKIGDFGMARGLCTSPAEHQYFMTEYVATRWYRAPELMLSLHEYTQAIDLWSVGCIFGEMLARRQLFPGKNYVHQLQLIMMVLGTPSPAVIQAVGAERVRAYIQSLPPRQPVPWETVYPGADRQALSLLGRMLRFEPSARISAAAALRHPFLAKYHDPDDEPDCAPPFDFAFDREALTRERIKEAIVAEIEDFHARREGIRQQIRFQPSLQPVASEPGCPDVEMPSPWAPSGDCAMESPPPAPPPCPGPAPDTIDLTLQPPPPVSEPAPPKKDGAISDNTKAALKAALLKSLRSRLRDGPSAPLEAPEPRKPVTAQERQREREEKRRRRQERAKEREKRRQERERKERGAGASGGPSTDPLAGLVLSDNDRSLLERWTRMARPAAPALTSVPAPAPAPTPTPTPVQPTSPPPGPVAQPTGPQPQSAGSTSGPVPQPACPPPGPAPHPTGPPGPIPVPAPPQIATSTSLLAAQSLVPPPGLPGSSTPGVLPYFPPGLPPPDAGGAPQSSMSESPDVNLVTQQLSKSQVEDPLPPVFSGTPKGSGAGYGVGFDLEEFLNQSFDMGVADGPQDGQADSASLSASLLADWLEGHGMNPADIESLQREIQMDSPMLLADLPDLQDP
Data set [22] has as its target T1, Mitogen-activated protein kinase 7. The data set is described as follows: Inhibition of HA-tagged ERK5 (unknown origin) coexpressed with mutationally activated EGFP-MEK5D and Gal4-MEF2D in HEK293 cells assessed as reduction in MEF2 transcription by measuring luciferase signal after 20 hrs by luciferase reporter gene assay. In kind it is cell-based.
For data set [23] the target is unchanged. The data set is described as follows: Inhibition of recombinant N-terminal His-tagged human ERK5 (2 to 409 residues) co-expressed with GST-tagged human truncated MEK5DD lacking N-terminal 11 residues (13 to 448 residues) in Sf9 insect cells assessed as substrate peptide phosphorylation using (LVEPLTPSGEAPNQ(K-5FAM)-COOH as substrate incubated for 2 hrs by IMAP fluorescence polarisation assay.

Sequence of Mitogen-activated protein kinase 14 (Q16539 whole entry): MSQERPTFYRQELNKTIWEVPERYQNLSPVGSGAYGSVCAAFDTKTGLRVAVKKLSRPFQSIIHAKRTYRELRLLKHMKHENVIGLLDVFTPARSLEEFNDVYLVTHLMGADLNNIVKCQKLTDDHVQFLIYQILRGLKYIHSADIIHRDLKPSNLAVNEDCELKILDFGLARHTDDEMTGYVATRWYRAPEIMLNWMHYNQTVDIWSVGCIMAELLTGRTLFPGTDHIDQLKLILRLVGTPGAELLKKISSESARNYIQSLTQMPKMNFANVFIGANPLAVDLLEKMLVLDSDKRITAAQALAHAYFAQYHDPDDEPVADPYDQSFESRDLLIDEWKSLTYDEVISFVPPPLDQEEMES
Sequence of Cytochrome P450 2C9 (P11712 whole entry): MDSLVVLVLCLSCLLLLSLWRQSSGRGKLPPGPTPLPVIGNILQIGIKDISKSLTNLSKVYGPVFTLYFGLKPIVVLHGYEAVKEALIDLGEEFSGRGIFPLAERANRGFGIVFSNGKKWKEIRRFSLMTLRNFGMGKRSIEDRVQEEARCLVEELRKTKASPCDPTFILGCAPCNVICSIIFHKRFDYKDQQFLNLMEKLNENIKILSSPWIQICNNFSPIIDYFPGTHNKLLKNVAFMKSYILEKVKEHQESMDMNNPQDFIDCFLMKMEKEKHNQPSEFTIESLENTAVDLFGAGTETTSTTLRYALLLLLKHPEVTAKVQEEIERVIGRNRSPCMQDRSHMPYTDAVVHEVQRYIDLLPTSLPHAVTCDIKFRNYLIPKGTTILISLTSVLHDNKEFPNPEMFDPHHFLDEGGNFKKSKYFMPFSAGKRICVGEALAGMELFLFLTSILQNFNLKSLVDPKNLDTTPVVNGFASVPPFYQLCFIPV
Sequence of Cytochrome P450 2D6 (P10635 whole entry): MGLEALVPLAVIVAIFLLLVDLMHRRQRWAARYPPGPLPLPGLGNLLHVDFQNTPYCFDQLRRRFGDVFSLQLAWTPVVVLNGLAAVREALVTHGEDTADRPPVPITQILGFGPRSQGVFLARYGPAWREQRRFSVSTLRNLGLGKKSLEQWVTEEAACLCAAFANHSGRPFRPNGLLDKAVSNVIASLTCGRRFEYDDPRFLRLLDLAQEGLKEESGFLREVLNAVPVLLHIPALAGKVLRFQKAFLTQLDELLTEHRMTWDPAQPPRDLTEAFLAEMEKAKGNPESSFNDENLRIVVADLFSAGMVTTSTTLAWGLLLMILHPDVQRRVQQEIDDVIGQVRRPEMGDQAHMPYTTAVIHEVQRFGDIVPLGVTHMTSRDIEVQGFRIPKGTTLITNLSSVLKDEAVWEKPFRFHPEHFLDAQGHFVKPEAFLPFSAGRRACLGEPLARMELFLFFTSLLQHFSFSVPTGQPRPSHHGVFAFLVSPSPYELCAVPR
Sequence of Cytochrome P450 2C19 (P33261 whole entry): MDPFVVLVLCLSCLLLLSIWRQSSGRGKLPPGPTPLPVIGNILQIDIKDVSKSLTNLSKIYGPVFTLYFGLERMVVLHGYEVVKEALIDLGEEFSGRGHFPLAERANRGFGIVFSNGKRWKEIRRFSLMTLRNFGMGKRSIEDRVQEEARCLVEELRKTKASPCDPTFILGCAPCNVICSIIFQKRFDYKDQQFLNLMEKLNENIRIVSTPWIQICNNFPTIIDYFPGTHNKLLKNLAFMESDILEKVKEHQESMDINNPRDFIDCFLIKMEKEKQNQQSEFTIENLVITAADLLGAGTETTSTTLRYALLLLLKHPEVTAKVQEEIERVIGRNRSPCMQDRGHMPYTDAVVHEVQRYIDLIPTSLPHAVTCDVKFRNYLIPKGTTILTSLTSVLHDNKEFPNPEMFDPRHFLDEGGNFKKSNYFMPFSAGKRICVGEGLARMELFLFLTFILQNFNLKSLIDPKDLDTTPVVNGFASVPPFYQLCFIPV

As to `CCOc1cc(N2CCC(O)CC2)ccc1Nc1ncc2c(n1)N(C)c1ccccc1C(=O)N2C`, in the data set with A2780 [1], the inhibition in vivo at 50 mg/kg came to 62%. The Kd in data set [2] worked out at 1.6 µM. Also, in data set [3], the Activity was found to be 98%.
As for `O=C(Nc1cccnc1)c1cc(C(=O)c2c(F)cccc2Br)c[nH]1`, the values for the AUC at 24 h in data set [4] and in data set [8] were 4230 ng·h/mL and 6200 ng·h/mL, respectively. In addition, the values for the microsomal CLint in [5] and in data set [7] were under 5 µL/min/mg and 26 µL/min/mg, respectively. The inhibition in vivo at 100 mg/kg in the data set with A2780 [6] came to 57%. For the same molecule, halving of growth in the data set with PC-3 (GI50) required 44 µM. Further, the IC50 was over 5 µM against Cytochrome P450 2C9; over 5 µM against Cytochrome P450 3A4; over 120 µM in [11]; over 5 µM against Cytochrome P450 2D6; over 5 µM on Cytochrome P450 2C19. In data set [9], the bioavailability came to 68%. In [10], this molecule gave a clearance of 27 mL/min/kg. The fraction unbound in data set [12] was 0.06. In data set [13], the Papp B→A is over 10 ×10⁻⁶ cm/s. In addition, in [14], the Activity was 99%. Moreover, the Tmax in data set [15] is 15 min. The molecule also registered a half-life in data set [16] of 38 min. The molecule also displayed a solubility (kinetic) in data set [17] of over 100 µM. For the same molecule, the Cmax in data set [18] turned out to be 6 µM; in data set [20] it was 25 µM. The molecule further had a Vd in data set [19] of 1.2 L/kg.
`O=C(NCc1ccncc1)c1cc(C(=O)c2cccc(Cl)c2Cl)c[nH]1`: in [21], the IC50 was 2 µM.
As for `O=C(Nc1ccncc1)c1cc(C(=O)c2c(F)cccc2F)c[nH]1`, the IC50 in [22] turned out to be 8 µM; in data set [11], 100 µM.
Take `O=C(NCc1ccncc1)c1cc(C(=O)c2c(F)cccc2F)c[nH]1`: the IC50 was determined as 0.58 µM in data set [11] and 30 µM in data set [23].
`O=C(NCc1ccncc1)c1cc(C(=O)c2c(Cl)cccc2Cl)c[nH]1`: the IC50 was found to be 12.3 µM in data set [11] and 4.4 µM in data set [23].
`O=C(Nc1cccnc1)c1cc(C(=O)c2c(F)cccc2Cl)c[nH]1`: the IC50 in data set [11] is 93.2 µM.
On to `O=C(NCc1ccncc1)c1cc(C(=O)c2cccc(F)c2F)c[nH]1`, for which the IC50 in [11] worked out at 2.4 µM; in [23], 7 µM.
On to `O=C(NCc1ccncc1)c1cc(C(=O)c2ccccc2Cl)c[nH]1`, for which the IC50 in [23] was determined as 15 µM.
Regarding `O=C(Nc1cccnc1)c1cc(C(=O)c2c(F)cccc2F)c[nH]1`, the IC50 in data set [11] was 35 µM; in [23], 1.1 µM.
Consider `O=C(c1ccc(Cl)cc1)c1c[nH]c(C(=O)NCc2ccncc2)c1`, for which the IC50 in data set [23] was over 120 µM.
For `O=C(NCc1ccncc1)c1cc(C(=O)c2ccccc2F)c[nH]1`, the IC50 amounted to 0.36 µM in data set [11] and 5.9 µM in data set [23].
With `O=C(Nc1ccncc1)c1cc(C(=O)c2c(F)cccc2Br)c[nH]1`, the concentration for half-maximal inhibition (IC50) in [22] was 4 µM; in data set [11], over 120 µM; in data set [23] it was 0.7 µM.
On to `O=C(Nc1ccncc1)c1cc(C(=O)c2c(F)cccc2Cl)c[nH]1`, for which the values for the IC50 in data set [22] and in data set [11] were 2.3 µM and over 120 µM, respectively.
On to `O=C(c1ccc(F)cc1)c1c[nH]c(C(=O)NCc2ccncc2)c1`, for which the concentration for half-maximal inhibition (IC50) in data set [23] is over 120 µM.
Still for that read-out and setting: the value for `O=C(c1ccccc1)c1c[nH]c(C(=O)NCc2ccncc2)c1` was 40 µM.
Take `O=C(c1cccc(Cl)c1)c1c[nH]c(C(=O)NCc2ccncc2)c1`: the IC50 in [11] is 6.5 µM; in data set [23], 6.3 µM.
For `O=C(c1cccc(F)c1)c1c[nH]c(C(=O)NCc2ccncc2)c1`, the IC50 in [23] was over 120 µM.

As usually defined, the inhibition in vivo is the share of the control response that was lost under treatment. As usually defined, the Kd is a measure of binding affinity in units of concentration. Lower therefore signals higher affinity. The AUC is concentration integrated over time. Read a high AUC as high exposure. By GI50 is commonly meant the concentration at which growth is held to half of that of the control. Low values mean more potent growth inhibition, high ones less potent growth inhibition. In general, IC50 refers to the midpoint of a concentration-inhibition curve. For orientation: bioavailability means dose-corrected exposure relative to a reference, in per cent. A low value points to little systemic uptake. As a reminder, the clearance is a measure of how efficiently the substance is removed, as volume per time. Broadly, the fraction unbound is the share of the substance not bound to proteins or other matrix. The low end stands for extensive binding, the high end for weak binding. A word on the Tmax: it is the time from dosing to the highest level. Usually half-life stands for the time in which the quantity being followed falls by half. One may read the kinetic solubility as the concentration staying in solution when a stock, usually in DMSO, is diluted into the medium. A word on the Cmax: it is the maximum level reached in the sampled fluid or tissue. Broadly, the Vd is a proportionality between amount in the body and measured concentration, not a real space. A high value points to extensive tissue distribution.

These data come from ChEMBL document CHEMBL4364269, “Identification of a novel orally bioavailable ERK5 inhibitor with selectivity over p38α and BRD4” (Eur J Med Chem, 2019).
